Measurements reported in patent publication US9988379B2, “GPR40 receptor agonist, methods of preparing the same, and pharmaceutical compositions containing the same as an active agent” (LG CHEM, LTD., priority 2012, dated 2018).

target: T1, human GPR40 (Homo sapiens, UniProt O14842); assay: Induction of Ca2+ (calcium flux assay) using human GPR40 expression cell line; type: cell-based; conditions: read-out: EC0.5
T1 construct: expressed in transfected cells; host or cells: CHO-K1
Method in brief: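 CHO-K1 cells stably transfected with human GPR40, plated 24 h, loaded 1 h at 37° C with Calcium 5 dye in HBSS/HEPES pH 7.4. Intracellular calcium change after compound addition read on FlexStation; concentration–response of relative activity used to derive EC0.5.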

T1 sequence (O14842 whole entry): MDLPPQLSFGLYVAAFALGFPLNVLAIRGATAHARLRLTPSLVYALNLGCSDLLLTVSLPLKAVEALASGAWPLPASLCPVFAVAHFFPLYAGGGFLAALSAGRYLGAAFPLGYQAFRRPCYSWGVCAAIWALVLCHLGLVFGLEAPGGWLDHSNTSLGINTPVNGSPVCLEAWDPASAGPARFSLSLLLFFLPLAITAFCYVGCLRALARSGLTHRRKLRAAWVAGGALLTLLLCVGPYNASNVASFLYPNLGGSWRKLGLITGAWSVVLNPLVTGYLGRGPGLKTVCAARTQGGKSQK

| SMILES | EC50 |
| --- | --- |
| O=C(O)CC1CCOc2cc(OCc3ccc4c(cnn4Cc4cccnc4)c3)ccc21 (stereo not shown) [Example 148, [7-(1-pyridin-3-ylmethyl-1H-indazol-5-ylmethoxy)-chroman-4-yl]-acetic acid] | ≥ 500 nM |
| CCOCCn1ncc2cc(COc3ccc4c(c3)OCCC4CC(=O)O)ccc21 (stereo not shown) [Example 149, {7-[1-(2-ethoxy-ethyl)-1H-indazol-5-ylmethoxy]-chroman-4-yl}-acetic acid] | ≥ 500 nM |
| CC#C[C@@H](CC(=O)O)c1ccc(OCc2ccc3c(cnn3CCCS(C)(=O)=O)c2)cc1 [Example 152, (S)-3-{4-[1-(3-methanesulfonyl-propyl)-1H-indazol-5-ylmethoxy]-phenyl}-hex-4-ynoic acid] | ≥ 500 nM |
| CC#C[C@@H](CC(=O)O)c1ccc(OCc2ccc3nn(CC4CCOC4)cc3c2)cc1 (stereo partly drawn) [Example 154, (S)-3-{4-[2-(tetrahydrofuran-3-ylmethyl)-2H-indazol-5-ylmethoxy]-phenyl}-hex-4-ynoic acid] | ≥ 500 nM |
| COC(CC(=O)O)c1ccc(OCc2ccc3c(cnn3Cc3ccccc3)c2)cc1 (stereo not shown) [Example 155, 3-[4-(1-benzyl-1H-indazol-5-ylmethoxy)-phenyl]-3-methoxy-propanoic acid] | 50 to 500 nM |
| CC(CC(=O)O)c1ccc(OCc2ccc3c(cnn3Cc3ccccc3)c2)cc1 (stereo not shown) [Example 158, 3-[4-(1-benzyl-1H-indazol-5-ylmethoxy)-phenyl]-butyric acid] | 50 nM |
| CCC(CC(=O)O)c1ccc(OCc2ccc3c(cnn3Cc3ccccc3)c2)cc1 (stereo not shown) [Example 159, 3-[4-(1-benzyl-1H-indazol-5-ylmethoxy)-phenyl]-pentanoic acid] | 100 nM |
| CC#C[C@@H](CC(=O)O)c1ccc(OCc2ccc3nn(CCOCC)cc3c2)cc1 [Example 160, (S)-3-{4-[2-(2-ethoxy-ethyl)-2H-indazol-5-ylmethoxy]-phenyl}-hex-4-ynoic acid] | 50 to 500 nM |
| CC#C[C@@H](CC(=O)O)c1ccc(OCc2ccc3c(c2)n(C)c(=O)n3Cc2ccccc2)cc1 [Example 161, (S)-3-[4-(1-benzyl-3-methyl-2-oxo-2,3-dihydro-1H-benzoimidazol-5-ylmethoxy)-phenyl]-hex-4-ynoic acid] | 5 nM |
| N#CC(CC(=O)O)c1ccc(OCc2ccc3c(cnn3Cc3ccccc3)c2)cc1 (stereo not shown) [Example 162, 3-[4-(1-benzyl-1H-indazol-5-ylmethoxy)-phenyl]-3-cyano-propanoic acid] | 20 nM |
| CC#C[C@@H](CC(=O)O)c1ccc(OCc2ccc3nnn(CC(C)C)c3c2)cc1 [Example 166, (S)-3-[4-(3-isobutyl-3H-benzotriazol-5-ylmethoxy)-phenyl]-hex-4-ynoic acid] | 50 to 500 nM |
| O=C(O)C1CC1c1ccc(OCc2ccc3cnn(Cc4ccccc4)c3c2)cc1 (stereo not shown) [Example 167, 2-[4-(1-benzyl-1H-indazol-6-ylmethoxy)-phenyl]-cyclopropane carboxylic acid] | 60 nM |
| CC#C[C@@H](CC(=O)O)c1ccc(OCc2ccc3c(c2)c(C)nn3CC(C)C)cc1 [Example 170, (S)-3-[4-(1-isobutyl-3-methyl-1H-indazol-5-ylmethoxy)-phenyl]-hex-4-ynoic acid] | 1 to 50 nM |
| CC#C[C@@H](CC(=O)O)c1ccc(OCc2ccc3c(cnn3CCS(C)(=O)=O)c2)cc1 [Example 174, (S)-3-{4-[1-(2-methanesulfonyl-ethyl)-1H-indazol-5-ylmethoxy]-phenyl}-hex-4-ynoic acid] | ≥ 500 nM |
| CC#C[C@@H](CC(=O)O)c1ccc(OCc2ccc3c(C)nn(CC(C)C)c3c2)cc1 [Example 178, (S)-3-[4-(1-isobutyl-3-methyl-1H-indazol-6-ylmethoxy)-phenyl]-hex-4-ynoic acid] | 1 to 50 nM |
| CC#C[C@@H](CC(=O)O)c1ccc(OCc2ccc3c(C)n(CC(C)C)nc3c2)cc1 [Example 179, (S)-3-[4-(2-isobutyl-3-methyl-2H-indazol-6-ylmethoxy)-phenyl]-hex-4-ynoic acid] | 1 to 50 nM |
| CC#C[C@@H](CC(=O)O)c1ccc(OCc2ccc3onc(CC(C)C)c3c2)cc1 [Example 181, (S)-3-[4-(3-isobutyl-benzo[d]isoxazol-5-ylmethoxy)-phenyl]-hex-4-ynoic acid] | 6 nM |
| CC#C[C@@H](CC(=O)O)c1ccc(OCc2cccc3c2cnn3CC(C)C)cc1 [Example 184, (S)-3-[4-(1-isobutyl-1H-indazol-4-ylmethoxy)-phenyl]-hex-4-ynoic acid] | 1 to 50 nM |
| CC#C[C@@H](CC(=O)O)c1ccc(OCc2ccc3c(C)nn(C(C)C)c3c2)cc1 [Example 185, (S)-3-[4-(1-isopropyl-3-methyl-1H-indazol-6-ylmethoxy)-phenyl]-hex-4-ynoic acid] | 1 to 50 nM |
| CC#C[C@@H](CC(=O)O)c1ccc(OCc2ccc3c(c2)c(CC(C)C)nn3C)cc1 [Example 186, (S)-3-[4-(3-isobutyl-1-methyl-1H-indazol-5-ylmethoxy)-phenyl]-hex-4-ynoic acid] | 1 to 50 nM |
| CC#C[C@@H](CC(=O)O)c1ccc(OCc2ccc3c(c2)c(C)nn3C(C)C)cc1 [Example 187, (S)-3-[4-(1-isopropyl-3-methyl-1H-indazol-5-ylmethoxy)-phenyl]-hex-4-ynoic acid] | 1 to 50 nM |

Now from value to compound:

| EC50 | SMILES |
| --- | --- |
| 3 nM | CC#C[C@@H](CC(=O)O)c1ccc(OCc2cc3c(cnn3CC(C)C)cc2F)cc1 [Example 150, (S)-3-[4-(5-fluoro-1-isobutyl-1H-indazol-6-ylmethoxy)-phenyl]-hex-4-ynoic acid] |
| 1 to 50 nM | CC#C[C@@H](CC(=O)O)c1ccc(OCc2ccc3c(cnn3CC3CCCO3)c2)cc1 (stereo partly drawn) [Example 151, (S)-3-{4-[1-(tetrahydrofuran-2-ylmethyl)-1H-indazol-5-ylmethoxy]-phenyl}-hex-4-ynoic acid] |
| 1 to 50 nM | CC#C[C@@H](CC(=O)O)c1ccc(OCc2ccc3c(cnn3CC3CCOC3)c2)cc1 (stereo partly drawn) [Example 153, (S)-3-{4-[1-(tetrahydrofuran-3-ylmethyl)-1H-indazol-5-ylmethoxy]-phenyl}-hex-4-ynoic acid] |
| 20 nM | CC#C[C@@H](CC(=O)O)c1ccc(OCc2cnc3c(cnn3CC(C)C)c2)cc1 [Example 156, (S)-3-[4-(1-isobutyl-1H-pyrazolo[3,4-b]pyridin-5-ylmethoxy)-phenyl]-hex-4-ynoic acid] |
| 1 to 50 nM | CC#C[C@@H](CC(=O)O)c1ccc(OCc2ccc3c(cnn3CCOCC)c2)cc1 [Example 157, (S)-3-{4-[1-(2-ethoxy-ethyl)-1H-indazol-5-ylmethoxy]-phenyl}-hex-4-ynoic acid] |
| 1 to 50 nM | CC#C[C@@H](CC(=O)O)c1ccc(OCc2ccc3c(cnn3CC3CCCC3)c2)cc1 [Example 163, (S)-3-[4-(1-cyclopentylmethyl-1H-indazol-5-ylmethoxy)-phenyl]-hex-4-ynoic acid] |
| 1 to 50 nM | CC#C[C@@H](CC(=O)O)c1ccc(OCc2ccc3c(cnn3C3CCCC3)c2)cc1 [Example 164, (S)-3-[4-(1-cyclopentyl-1H-indazol-5-ylmethoxy)-phenyl]-hex-4-ynoic acid] |
| 1 to 50 nM | CC#C[C@@H](CC(=O)O)c1ccc(OCc2ccc3c(cnn3CC3CC3)c2)cc1 [Example 165, (S)-3-[4-(1-cyclopropylmethyl-1H-indazol-5-ylmethoxy)-phenyl]-hex-4-ynoic acid] |
| 1 to 50 nM | CC#C[C@@H](CC(=O)O)c1ccc(OCc2cc(C)c3c(cnn3C(C)C)c2)cc1 [Example 168, (S)-3-[4-(1-isopropyl-7-methyl-1H-indazol-5-ylmethoxy)-phenyl]-hex-4-ynoic acid] |
| 1 to 50 nM | CC#C[C@@H](CC(=O)O)c1ccc(OCc2cc(C)c3c(cnn3CC3CCCC3)c2)cc1 [Example 169, (S)-3-[4-(1-cyclopentylmethyl-7-methyl-1H-indazol-5-ylmethoxy)-phenyl]-hex-4-ynoic acid] |
| 1 to 50 nM | CC#C[C@@H](CC(=O)O)c1ccc(OCc2cc(C)c3c(cnn3C3CCCC3)c2)cc1 [Example 171, (S)-3-[4-(1-cyclopentyl-7-methyl-1H-indazol-5-ylmethoxy)-phenyl]-hex-4-ynoic acid] |
| 1 to 50 nM | CC#C[C@@H](CC(=O)O)c1ccc(OCc2ccc3cnn(C4CCCC4)c3c2)cc1 [Example 172, (S)-3-[4-(1-cyclopentyl-1H-indazol-6-ylmethoxy)-phenyl]-hex-4-ynoic acid] |
| 1 to 50 nM | CC#C[C@@H](CC(=O)O)c1ccc(OCc2ccc3cnn(CC4CCCC4)c3c2)cc1 [Example 173, (S)-3-[4-(1-cyclopentylmethyl-1H-indazol-6-ylmethoxy)-phenyl]-hex-4-ynoic acid] |
| 50 to 500 nM | CC#C[C@@H](CC(=O)O)c1ccc(OCc2ccc3c(cnn3CCOC)c2)cc1 [Example 175, (S)-3-{4-[1-(2-methoxy-ethyl)-1H-indazol-5-ylmethoxy]-phenyl}-hex-4-ynoic acid] |
| 40 nM | CC#C[C@@H](CC(=O)O)c1ccc(OCc2ccc3c(cnn3CCCOC)c2)cc1 [Example 176, (S)-3-{4-[1-(3-methoxy-propyl)-1H-indazol-5-ylmethoxy]-phenyl}-hex-4-ynoic acid] |
| 1 to 50 nM | CC#C[C@@H](CC(=O)O)c1ccc(OCc2ccc3cnn(CC4(C)COC4)c3c2)cc1 [Example 177, (S)-3-{4-[1-(3-methyl-oxetan-3-ylmethyl)-1H-indazol-6-ylmethoxy]-phenyl}-hex-4-ynoic acid] |
| 1 to 50 nM | CC#C[C@@H](CC(=O)O)c1ccc(OCc2ccc3cnn(C(C)C)c3c2)cc1 [Example 180, (S)-3-[4-(1-isopropyl-1H-indazol-6-ylmethoxy)-phenyl]-hex-4-ynoic acid] |
| 1 to 50 nM | CC#C[C@@H](CC(=O)O)c1ccc(OCc2ccc3cnn(CC(C)(C)C)c3c2)cc1 [Example 182, (S)-3-{4-[1-(2,2-dimethyl-propyl)-1H-indazol-6-ylmethoxy]-phenyl}-hex-4-ynoic acid] |
| 1 to 50 nM | CC#C[C@@H](CC(=O)O)c1ccc(OCc2cc3cnn(CC(C)C)c3cc2C)cc1 [Example 183, (S)-3-[4-(1-isobutyl-6-methyl-1H-indazol-5-ylmethoxy)-phenyl]-hex-4-ynoic acid] |
